Patent US20080235828A1 (University of Manitoba, priority 2004, published 2008)
Changes are numbered by the printed parent chain.

How the values were obtained:
FCA-WF protein = molecular target: T1, FCA-WF protein (Arabidopsis thaliana, UniProt O04425, W619F); experiment: ABA binding assay with FCA-WF (mutated WW domain); details: mutation in the second W of WW domain
T1 sequence (O04425 1-747 W619F): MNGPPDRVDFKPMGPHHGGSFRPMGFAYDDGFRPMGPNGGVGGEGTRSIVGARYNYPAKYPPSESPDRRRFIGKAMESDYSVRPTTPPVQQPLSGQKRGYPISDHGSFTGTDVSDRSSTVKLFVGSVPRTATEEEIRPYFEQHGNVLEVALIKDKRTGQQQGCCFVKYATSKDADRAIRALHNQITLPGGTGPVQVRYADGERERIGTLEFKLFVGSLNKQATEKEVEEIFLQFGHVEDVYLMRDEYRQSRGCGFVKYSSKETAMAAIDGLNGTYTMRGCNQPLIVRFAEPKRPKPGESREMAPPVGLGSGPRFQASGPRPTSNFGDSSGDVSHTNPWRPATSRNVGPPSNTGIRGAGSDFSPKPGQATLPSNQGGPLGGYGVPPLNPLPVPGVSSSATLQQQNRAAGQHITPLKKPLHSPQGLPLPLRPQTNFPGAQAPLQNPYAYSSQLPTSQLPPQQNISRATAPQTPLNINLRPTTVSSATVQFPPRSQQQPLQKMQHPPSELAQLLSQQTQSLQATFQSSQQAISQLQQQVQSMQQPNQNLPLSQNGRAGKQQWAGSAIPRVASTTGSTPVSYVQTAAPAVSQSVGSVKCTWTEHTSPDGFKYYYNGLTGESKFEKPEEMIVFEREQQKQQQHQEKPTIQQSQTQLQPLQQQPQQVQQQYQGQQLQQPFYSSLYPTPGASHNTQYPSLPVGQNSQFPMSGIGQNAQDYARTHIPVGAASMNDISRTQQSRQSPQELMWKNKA
Experimental: The GST:FCA-WW-FY interaction mixture was incubated for 90 minutes before 1 μM ^3H^+-ABA was added and the mixture pelletted, washed, and the dual activity for [^35S]-met-FY and ^3H^+-ABA were counted as described above.
Similarly, FCA-WF protein was used and binding assays were carried out as above. […] The FCA ^3H^+-ABA binding activity in the absence of FY reached approximately 50% saturation at 15 minutes and approximately 95% saturation at 45 minutes. Each data point represents triplicate assays and error bars represent standard deviation.

ABAP1 = ABAP1 (Hordeum vulgare, UniProt Q9LLX3); experiment: ABA binding assay with purified recombinant ABAP1; design: species or system barley
ABAP1, sequence (Q9LLX3 entry or part of it): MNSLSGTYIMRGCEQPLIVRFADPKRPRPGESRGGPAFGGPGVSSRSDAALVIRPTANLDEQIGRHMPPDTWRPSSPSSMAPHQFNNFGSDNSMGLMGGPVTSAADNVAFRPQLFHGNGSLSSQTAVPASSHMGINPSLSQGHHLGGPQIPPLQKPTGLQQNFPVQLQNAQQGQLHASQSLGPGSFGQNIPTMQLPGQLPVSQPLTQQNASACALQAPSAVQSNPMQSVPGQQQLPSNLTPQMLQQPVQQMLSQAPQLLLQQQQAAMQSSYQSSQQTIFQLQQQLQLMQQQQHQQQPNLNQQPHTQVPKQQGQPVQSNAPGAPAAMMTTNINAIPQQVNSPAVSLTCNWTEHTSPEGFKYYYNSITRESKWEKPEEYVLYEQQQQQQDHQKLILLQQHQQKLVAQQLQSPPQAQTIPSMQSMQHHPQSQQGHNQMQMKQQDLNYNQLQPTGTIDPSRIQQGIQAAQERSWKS
Experimental: Other additions or changes to the incubation system are discussed in the figure legends. All binding assays were carried out at a final volume of 150 μL at 4° C. for 1 hour. The mixture was then rapidly filtered through a nitrocellulose membrane, washed with 5 mL, of cold 0.5× binding buffer by rapid filtration, dried in air and counted in a scintillation counter (Wallac 1414 WinSpectral v1.40). […] The DCC binding mixture was maintained for 15 minutes on ice before centrifugation to precipitate DCC. The resulted supernatant was then counted in a scintillation counter to determine the binding activity. […] Heat denatured ABAP1 protein was used to determine the protein nature of the ABAP1 and BSA was used as a control. All binding studies were carried out using three different protein purifications with triplicate assays for each purification. […] Binding was represented as the number of moles of ^3H^+-ABA per mole of ABAP1 protein.

FCA protein = molecular target: T2, FCA protein (Arabidopsis thaliana, UniProt O04425); experiment: ABA binding assay with purified recombinant FCA; design: Kd; other: analog added in higher concentrations than 3H+-ABA (20-5000 nM); other: Scatchard analysis, r^2=0.88; other: in presence of 5 μM unlabelled (+)-ABA; pH range of maximum; fused on or other part: GST fused on for purification
T2 sequence (O04425 1-747 isoform O04425-1): T1 sequence (O04425 1-747 W619F) with F619W
Experimental: […] The mixture was then rapidly filtered through a nitrocellulose membrane, washed with 0.5× binding buffer, air dried and counted in a scintillation counter (Wallac 1414 WinSpectral v1.40). Heat denatured FCA protein was used to used determine the protein nature of the FCA and BSA was used as a control. All binding studies were carried out using three different GST affinity chromatography protein purifications with triplicate assays for each purification. […] Specific binding was calculated by taking the difference for assays with only ^3H^+-ABA (total binding) and assays that also contained 5 μM (±)-ABA added at the same time as ^3H^+-ABA (non-specific binding). Binding was represented as the number of moles of ^3H^+-ABA per mole of FCA protein.

abscisic acid [ABA]
3H+-ABA binding ratio relative to non-mutated FCA-WW protein (FCA-WF protein): virtually a similar ratio | pH of maximum binding activity (ABAP1; 3H+-ABA binding at varying pH): 7.3 | maximum specific binding (ABAP1; Scatchard plot analysis, r^2=0.94): 0.8 mol ABA mold protein | ratio of ABA bound to ABAP1 (ABAP1; Scatchard plot, r^2=0.94): approximately 0.8 mol ABA mol^−1 protein | time maximum binding activity remained stable (ABAP1; additional time after reaching maximum binding): ≥ 3 h | maximum binding activity (total binding) (ABAP1; association kinetics, total binding): ≈ 0.7 mol ABA mol^−1 protein | non-specific binding (ABAP1; in presence of 5 μM unlabelled ABA): less than 10 % of the total binding | binding corresponding to 100% binding activity (FCA protein; 50 nM 3H-(+)-ABA, FIG. 16): approximately 0.52 mol ABA mol^−1 protein | maximum binding (FCA protein; Scatchard analysis, r^2=0.88): 0.72 mol mol^−1 protein | ratio of ABA bound to FCA (FCA protein; Scatchard plot): approximately 0.72 mol ABA mol^−1 protein | non-specific binding (FCA protein; in presence of 5 μM unlabelled (+)-ABA): less than 11 % of the total binding
